Experimental data reported in PMC9394307, “Discovery of Putative Dual Inhibitor of Tubulin and EGFR by Phenotypic Approach on LASSBio-1586 Homologs” (Pharmaceuticals, 2022).
Like-named read-outs stand apart in the source and are kept apart here.

How the values were obtained:
[1] = MTT cell viability assay, GM16000 lymphocytes; type: cell-based; settings: GM16000 lymphocyte cells (non-tumor), human lymphocytes, value (95% CI)
MCF-7 = assay: MTT cell viability assay, MCF-7; type: cell-based, human; settings: Homo sapiens, MCF7, 72 h, MTT, 72 h; value (95% CI); read-out: CC50 (µM) (CI) MCF-7
Protocol: (§1) The cytotoxic activity of compounds 3–13 was determined based on an MTT assay against different human tumor cell lines, using LASSBio-1586 (2), LASSBio-1735 (3), CA-4 (1) and pelitinib as standards (Table 2). To determine the cytotoxic selectivity index, compounds were also evaluated toward human lymphocytes (Table 3).
(§2) The target compounds were tested (0.0001–100 µM) for cytotoxic activity against selected human cancer cell lines, such as HL-60 (acute promyelocytic leukemia), MCF-7 (mammary adenocarcinoma), PC-3 (prostate adenocarcinoma), H1975 (non-small cell lung cancer—EGFR^L858R+T790M), PC-9 (non-small cell lung cancer—EGFR^L858R) H292 (mucoepidermoid pulmonary carcinoma—EGFR wild type), LoVo (colorectal adenocarcinoma—EGFRwild type) and GM16000 (lymphocyte). All the human cancer cell lines were purchased from Cell Bank of Rio de Janeiro—BCRJ. They were cultured in RPMI 1640 medium with 10% (v/v) FBS, 2 mM glutamine, at 37 °C in a humidified incubator containing 5% CO2.
(§3) The cytotoxicity of the compounds was evaluated by the MTT assay. The cell lines were cultured in 96 well plates for 72 h with a density of 0.1 × 10^5 cells/mL to 0.7 × 10^5 cells/mL to adherent cell lines. For lymphocytic lines, a density of 0.3 × 10^6 cells/mL was used. Afterwards they were treated with varying concentrations of the target compounds 2–12 (0.0001–100 µM), CA-4 (1) and pelitinib at 37 °C, in triplicate. The medium was incubated with 20 μL of 5 mg/mL MTT solution for 3 h in a humidified incubator containing 5% CO2 [11].
(§4) The purple-colored formazan crystals formed in the wells were dissolved in DMSO and their absorbance was measured at 595 nm with a microplate reader (SpectraMax M5, Molecular Devices).

LoVo [2] = assay: MTT cell viability assay, LoVo; type: cell-based; settings: Homo sapiens, 48 h, value (95% CI)
PC-9 = assay: MTT cell viability assay, PC-9; type: cell-based, human; settings: Homo sapiens, MTT, value (95% CI), read-out: CC50 (µM) (CI) PC-9
Protocol: as §1, §2
as §3, with “The cell lines were cultured in 96 well plates for 72 h with a density of 0.1 × 10^5 cells/mL to 0.7 × 10^5 cells/mL to adherent cell lines.” left out
as §4

PC-3 = assay: MTT cell viability assay, PC-3; type: cell-based; settings: Homo sapiens, PC-3; MTT, 72 h; value (95% CI); read-out: CC50 (µM) (CI) PC-3
Protocol: as §1, §2, §3, §4

[3] = MTT cell viability assay, GM16000 lymphocytes; type: cell-based; settings: GM16000 lymphocyte cells (non-tumor), human lymphocytes, value (95% CI); remark: listed apart in the source
Protocol: as §1
To establish the cytotoxic selective index (SI) of LASSBio-1586 homologs, they were studied on human lymphocyte cell lines (GM16000), using the MTT assay. The SI was calculated by the ratio between the CC50 on tumor and non-tumor cell lines. Although there is no consensus, values of SI ≥ 10 is considered satisfactory to assign safety to a new cytotoxic agent. This value means that the compound is more than ten times more cytotoxic to the tumor cell line than to normal cell line.
as §2, §3, §4

LoVo [4] = assay: MTT cell viability assay, LoVo; type: cell-based; settings: Homo sapiens, MTT, 72 h, value (95% CI), read-out: CC50 (µM) (CI) LoVo
Protocol: as §1, §2, §3, §4

H1975 = assay: MTT cell viability assay, H1975; type: cell-based, human; settings: Homo sapiens, MTT, value (95% CI), read-out: CC50 (µM) (CI) H1975
Protocol: as §1, §2
as §3, with “The cell lines were cultured in 96 well plates for 72 h with a density of 0.1 × 10^5 cells/mL to 0.7 × 10^5 cells/mL to adherent cell lines.” left out
as §4

H292 = assay: MTT cell viability assay, H292; type: cell-based, human; settings: Homo sapiens, MTT, value (95% CI), read-out: CC50 (µM) (CI) H292
Protocol: as §1, §2
as §3, with “The cell lines were cultured in 96 well plates for 72 h with a density of 0.1 × 10^5 cells/mL to 0.7 × 10^5 cells/mL to adherent cell lines.” left out
as §4

HL-60 = assay: MTT cell viability assay, HL-60; type: cell-based, human; settings: Homo sapiens, MTT, value (95% CI), read-out: CC50 (µM) (CI) HL-60
Protocol: as §1, §2
as §3, with “The cell lines were cultured in 96 well plates for 72 h with a density of 0.1 × 10^5 cells/mL to 0.7 × 10^5 cells/mL to adherent cell lines.” left out
as §4

H1975 cells = assay: Immunofluorescence of β-tubulin / microtubules; type: cell-based, human; settings: H1975, 48 h; CA-4 0.3 µM, vincristine 0.5 µM, taxol 0.1 µM, LASSBio-1586 10 µM, LASSBio-1735 0.5 µM, LASSBio-2070 4.5 µM, LASSBio-2074 20 µM
Protocol: Antitubulin agents have been broadly classified into destabilizing or stabilizing agents, based on their interference with the dynamic balance of polymerization or depolymerization of microtubules. […] CA-4 (1, 0.3 µM), vincristine (0.5 µM) and taxol (0.1 µM) were used as standard controls.
After incubation, cells were rinsed with PBS and fixed with 4% paraformaldehyde in PBS for 10 min at room temperature. They were then permeabilized with 0.5% Triton-X 100 in PBS 3 times for 10 min. The same solution was used for all subsequent washing steps. Cells were incubated with an anti-beta-tubulin antibody for 1 h at 37 °C. After incubation, cells were washed for 30 min and incubated with Alexa Fluor® 488, conjugated secondary antibody for 1 h at 37 °C, and nuclei were labeled with DAPI (0.1 mg/mL in 0.9% NaCl).
Live cultured cells grown in coverslips were mounted in Prolong Gold solution (Molecular Probes, USA) and were imaged on a Leica TCS SPE confocal microscope (Leica Microsystems, Germany) using 63x 1.3 N.A. oil immersion and the images acquired by the LAS X software. Cell morphology, focusing on the microtubules was analyzed, qualitatively, using the public domain NIH ImageJ Program (developed at the National Institutes of the USA Health and available on the internet at http://imagej.nih.gov/ij/ (accessed on 1 September 2021).

Row | SMILES | CC50 at 48 h [1] [µM] | CC50 (MCF-7) [µM] | CC50 (LoVo [2]) [µM] | CC50 (PC-9; PC-9, 48 h, 48 h) [µM] | CC50 (PC-9; PC-9, 72 h, 72 h) [µM] | CC50 (PC-3) [µM] | CC50 at 72 h [3] [µM] | CC50 (LoVo [4]) [µM] | CC50 (H1975; NCI-H1975, 48 h, 48 h) [µM] | CC50 (H1975; NCI-H1975, 72 h, 72 h) [µM] | CC50 (H292; NCI-H292, 48 h, 48 h) [µM] | CC50 (H292; NCI-H292, 72 h, 72 h) [µM] | CC50 (HL-60; HL-60, 48 h, 48 h) [µM] | CC50 (HL-60; HL-60, 72 h, 72 h) [µM] | cell morphology after treatment (H1975 cells) | effect on microtubules (stabilizing / destabilizing profile) (H1975 cells)
1 | CCOc1cc2ncc(C#N)c(Nc3ccc(F)c(Cl)c3)c2cc1NC(=O)/C=C/CN(C)C [Pelitinib, reference compound] | 0.899 | 3.91 | 1.7 | 0.325 | 0.0591 | 2.48 | 2.75 | 0.037 | 2.57 | 0.512 | 0.48 | 0.0784 | 3.42 | 2.08 |  | 
2 | CCCN(/N=C/c1ccccc1)C(=O)c1cc(OC)c(OC)c(OC)c1 [LASSBio-2118 (5), (E)-N’-benzylidene-3,4,5-trimethoxy-N-propylbenzohydrazide] | 1.1 | 0.144 | 0.74 | 0.263 | 0.136 | 0.432 | 0.843 | 0.031 | 1.12 | 0.775 | 0.181 | 3.72 | 1.46 | 0.301 |  | 
3 | COc1cc(C(=O)N(CCN2CCOCC2)/N=C/c2ccccc2)cc(OC)c1OC [LASSBio-2122 (12), (E)-N’-benzylidene-3,4,5-trimethoxy-N-(2-morpholinoethyl)benzohydrazide] | 3.8 | 4.11 | 1.05 | 1.5 | 0.871 | 2.4 | 5.65 | 0.421 | 6.37 | 2.48 | 0.412 | 2.79 | 5.09 | 4.15 |  | 
4 | CC[C@]1(O)C[C@H]2CN(CCc3c([nH]c4ccccc34)[C@@](C(=O)OC)(c3cc4c(cc3OC)N(C=O)[C@H]3[C@@](O)(C(=O)OC)[C@H](OC(C)=O)[C@]5(CC)C=CCN6CC[C@]43[C@@H]65)C2)C1 [vincristine, reference compound] |  |  |  |  |  |  |  |  |  |  |  |  |  |  | rounded shape | typical response of microtubule destabilizing agents
